The record followed here is PMC11237753, “Discovery of α-(1→6)-linked mannan structures resembling yeast N-glycan outer chains in Aspergillus fumigatus mycelium” (mSphere, 2024).

The target of one assay is T1, Mnn5 (AfMnn5) (Aspergillus fumigatus, UniProt B0Y1T7).
T1 construct: gene AFUB_060800; N-terminal 6xHis, transmembrane residues 1-29 removed (30-492), expressed in E. coli SHuffle T7 Express, about 52 kDa
T1 sequence (B0Y1T7 30-492): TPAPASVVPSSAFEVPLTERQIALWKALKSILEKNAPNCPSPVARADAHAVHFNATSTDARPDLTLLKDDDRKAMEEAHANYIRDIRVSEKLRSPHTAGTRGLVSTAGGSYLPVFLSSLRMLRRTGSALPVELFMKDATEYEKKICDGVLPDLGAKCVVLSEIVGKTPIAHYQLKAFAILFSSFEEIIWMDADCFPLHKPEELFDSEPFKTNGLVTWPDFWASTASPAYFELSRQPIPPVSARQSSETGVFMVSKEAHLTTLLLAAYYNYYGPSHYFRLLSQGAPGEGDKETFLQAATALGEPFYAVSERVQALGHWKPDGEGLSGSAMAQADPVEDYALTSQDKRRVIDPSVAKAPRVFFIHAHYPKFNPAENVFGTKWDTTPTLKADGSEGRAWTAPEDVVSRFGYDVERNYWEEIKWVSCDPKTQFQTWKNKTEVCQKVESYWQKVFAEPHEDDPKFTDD
In words: reverse-phase HPLC of products. Type of assay: biochemical. Conditions: acceptor 1.5 mM; 10 mM GDP-Man, 0.5 mM MnCl2, pH 6.8, 30 °C, 16 h.

For a further assay, the target named is T2, Mnn2 (AfMnn2) (Aspergillus fumigatus, UniProt B0YD06).
T2 construct: gene AFUB_093840; N-terminal 6xHis, transmembrane residues 1-30 removed (31-493), expressed in E. coli SHuffle T7 Express, about 53 kDa
T2 sequence (B0YD06 31-493): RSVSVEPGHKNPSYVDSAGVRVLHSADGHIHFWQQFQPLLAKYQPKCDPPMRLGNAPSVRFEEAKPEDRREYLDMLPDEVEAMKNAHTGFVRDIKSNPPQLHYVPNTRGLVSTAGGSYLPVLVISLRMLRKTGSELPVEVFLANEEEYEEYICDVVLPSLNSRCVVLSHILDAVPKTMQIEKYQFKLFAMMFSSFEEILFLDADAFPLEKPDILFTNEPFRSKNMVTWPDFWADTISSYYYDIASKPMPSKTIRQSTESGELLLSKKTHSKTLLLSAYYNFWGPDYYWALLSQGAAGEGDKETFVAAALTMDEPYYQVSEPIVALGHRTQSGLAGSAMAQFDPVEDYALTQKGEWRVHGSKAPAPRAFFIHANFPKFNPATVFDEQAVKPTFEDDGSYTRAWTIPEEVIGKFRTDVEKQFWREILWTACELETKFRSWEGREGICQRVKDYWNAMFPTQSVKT
The assay can be described thus: reverse-phase HPLC of products. Type of assay: biochemical. The settings on record: acceptor 1.5 mM; 10 mM GDP-Man, 0.5 mM MnCl2, pH 6.8, 30 °C, 16 h.

Turning to `O=[N+]([O-])c1ccc(O[C@H]2O[C@H](CO)[C@@H](O)[C@H](O)[C@@H]2O)cc1` [p-nitrophenyl α-D-mannopyranoside], the “reverse-phase HPLC of products” value on Mnn5 (AfMnn5) and on Mnn2 (AfMnn2) was “fractions containing Mnn2 or Mnn5 revealed new products” in each case.
